Experimental data: US20140275143A1, “Compositions Comprising An Opioid And An Additional Active Pharmaceutical Ingredient For Rapid Onset And Extended Duration Of Analgesia That May Be Administered Without Regard To Food” (MALLINCKRODT LLC, priority 2013, published 2014)

Assays:
[1] = Dose proportionality and linearity of oxycodone (Example 34); assay type: in vivo, human; conditions: CR OC/APAP; for AUC0-inf vs dose, Slope / AUC0-inf vs dose, y-Intercept / Cmax vs dose, Slope / Cmax vs dose, y-Intercept: linearity; for Dose-normalized AUC0-inf vs dose, Slope / Dose-normalized AUC0-inf vs dose, y-Intercept / Dose-normalized Cmax vs dose, Slope / Dose-normalized Cmax vs dose, y-Intercept: proportionality
Procedure: Data were pooled from randomized, crossover, single- and multiple-dose studies conducted in healthy adults (aged 18-55 years) to evaluate the dose proportionality and dose linearity of the oxycodone component of CR OC/APAP when administered as 1, 2, or 4 tablets (7.5 mg, 15 mg, or 30 mg oxycodone, respectively). […] (See selected example from Chart No. 1)
The following treatments were administered under fasted conditions: • Single-dose studies: 1, 2, or 4 tablets of CR OC/APAP (7.5 mg, 15 mg, or 30 mg oxycodone, respectively) (see selected example from Chart No. 1) administered orally once • Multiple-dose studies: 1 or 2 tablets of CR OC/APAP (7.5 mg or 15 mg oxycodone, respectively) (see selected example from Chart No. 1) administered every 12 hours for 4.5 days (9 doses)
(§1) One single-dose study (highest dosage) enrolled healthy recreational drug users; all other studies enrolled healthy subjects with specific exclusions for drug use.
(§2) Area under the plasma oxycodone concentration-time curve from time 0 extrapolated to infinity (AUC0-inf) and maximum plasma concentration (Cmax)) were compared across dose levels of CR OC/APAP. […] For a linear PK system, the measures of exposure, such as maximal blood concentration (Cmax) or area under the curve from 0 to infinity (AUC) on the y-axis, are linearly (i.e., by a straight line) related to dose on the x-axis. Dose proportionality for CR OC/APAP was assessed; dose proportionality occurs when increases in the administered dose are accompanied by proportional increases in a measure of exposure, such as AUC or Cmax.
(§3) AUC0-inf and Cmax were divided by dose (dose-normalized) for dose proportionality analyses. Dose normalization (calculated as plasma concentration divided by dose) was utilized to compare concentration across different dosage strengths. Dose linearity and proportionality were determined using linear regression of non-transformed data, including 95% confidence intervals (CIs) and 95% prediction limits. Slope, y-intercept, and R^2 were calculated. The slope and the intercept together define the linear relationship between dose and AUC, or dose and Cmax. The coefficient of determination, R^2, represents the proportion of variability in a data set that is accounted for by a statistical model.

[2] = Dose proportionality and linearity of acetaminophen (Example 33); assay type: in vivo, human; conditions: CR OC/APAP; for AUC0-inf vs dose, Slope / AUC0-inf vs dose, y-Intercept / Cmax vs dose, Slope / Cmax vs dose, y-Intercept: linearity; for Dose-normalized AUC0-inf vs dose, Slope / Dose-normalized AUC0-inf vs dose, y-Intercept / Dose-normalized Cmax vs dose, Slope / Dose-normalized Cmax vs dose, y-Intercept: proportionality
From the text: (See selected example from Chart No. 1)
as §1
as §2, with “APAP” for “oxycodone”
as §3

Question: Which results are given for `COc1ccc2c3c1O[C@H]1C(=O)CC[C@@]4(O)[C@@H](C2)N(C)CC[C@]314` [Oxycodone]?
Answer: AUC0-inf vs dose, Slope ([1]; Multiple-Dose): 14.151; AUC0-inf vs dose, y-Intercept ([1]; Multiple-Dose): −3.774; Cmax vs dose, Slope ([1]; Multiple-Dose): 1.640; Cmax vs dose, y-Intercept ([1]; Multiple-Dose): 0.362; AUC0-inf vs dose, Slope ([1]; Single-Dose): 11.093; AUC0-inf vs dose, y-Intercept ([1]; Single-Dose): 7.202; Cmax vs dose, Slope ([1]; Single-Dose): 1.050; Cmax vs dose, y-Intercept ([1]; Single-Dose): −0.417; Dose-normalized AUC0-inf vs dose, Slope ([1]; Multiple-Dose): 0.033; Dose-normalized AUC0-inf vs dose, y-Intercept ([1]; Multiple-Dose): 13.397; Dose-normalized Cmax vs dose, Slope ([1]; Multiple-Dose): −0.003; Dose-normalized Cmax vs dose, y-Intercept ([1]; Multiple-Dose): 1.712; Dose-normalized AUC0-inf vs dose, Slope ([1]; Single-Dose): −0.024; Dose-normalized AUC0-inf vs dose, y-Intercept ([1]; Single-Dose): 12.015; Dose-normalized Cmax vs dose, Slope ([1]; Single-Dose): −0.001; Dose-normalized Cmax vs dose, y-Intercept ([1]; Single-Dose): 1.041

Question: Which results are given for `CC(=O)Nc1ccc(O)cc1` [acetaminophen]?
Answer: AUC0-inf vs dose, Slope ([2]; Multiple-Dose): 40.177; AUC0-inf vs dose, y-Intercept ([2]; Multiple-Dose): 2249.134; Cmax vs dose, Slope ([2]; Multiple-Dose): 7.079; Cmax vs dose, y-Intercept ([2]; Multiple-Dose): 816.140; AUC0-inf vs dose, Slope ([2]; Single-Dose): 41.021; AUC0-inf vs dose, y-Intercept ([2]; Single-Dose): 4024.292; Cmax vs dose, Slope ([2]; Single-Dose): 6.336; Cmax vs dose, y-Intercept ([2]; Single-Dose): 467.019; Dose-normalized AUC0-inf vs dose, Slope ([2]; Multiple-Dose): −0.011; Dose-normalized AUC0-inf vs dose, y-Intercept ([2]; Multiple-Dose): 50.557; Dose-normalized Cmax vs dose, Slope ([2]; Multiple-Dose): −0.004; Dose-normalized Cmax vs dose, y-Intercept ([2]; Multiple-Dose): 10.845; Dose-normalized AUC0-inf vs dose, Slope ([2]; Single-Dose): −0.007; Dose-normalized AUC0-inf vs dose, y-Intercept ([2]; Single-Dose): 52.943; Dose-normalized Cmax vs dose, Slope ([2]; Single-Dose): −0.001; Dose-normalized Cmax vs dose, y-Intercept ([2]; Single-Dose): 7.877
